Test results: the METLIN SMRT retention time set (Domingo-Almenara et al. 2019)

Assay: gradient 5% acetonitrile 3 min, to 50% in 2 min, to 85% in 15 min, held 3 min, 100 µL/min
Settings: column: Zorbax Extend-C18 2.1 x 50 mm; eluents: water / acetonitrile, 0.1% formic acid
Method in brief: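 Standards, all pure, were combined into mixtures of ~100 molecules and run at 100 μL/min on a Zorbax Extend-C18 column (2.1 × 50 mm, 1.8 μm) with water and acetonitrile, each containing 0.1% formic acid. A coupled quadrupole time-of-flight mass spectrometer operated in positive and negative ionization mode. Retention time values come from computationally picked adduct peaks, each inspected manually.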

Structure (SMILES)	RP-LC retention time [s]
NC(=O)C1CCN(S(=O)(=O)c2ccc(N3C(=O)CCS3(=O)=O)cc2)CC1	622
O=C(Cc1c[nH]c2ccccc12)N1CCC(c2nc(C3CC3)no2)C1 (centres undefined)	764
O=C(c1nnc(-c2ccc(S(=O)(=O)N3CCOCC3)cc2)o1)N1CCCC1	734
Cc1cc(NCCCCCCCNc2cc(C)nc3cc(N)ccc23)c2ccc(N)cc2n1	612
O=c1c(NCCc2ccccc2)nc2ccncc2n1Cc1ccccc1	742
COCc1cn(C2CN(C(=O)c3ccc(OC)c(F)c3)C2)nn1	649
O=C(CC1CCN(C(=O)c2ccc3oc(C4CC4)nc3c2)CC1)NCc1ccc2c(c1)OCO2	733
CCc1nnc(-c2ccc(=O)n(CC(=O)Nc3ccc(C)cc3C)c2)o1	693
CN1CCn2cc(S(=O)(=O)Nc3ccc(C#N)cc3)cc2C1=O	662
Cn1cc(-c2ccc(Cl)cc2)cc1C(=O)NCc1ccco1	1020
O=C(NCC1CCCO1)N1CCCn2nc(-c3cccs3)cc2C1 (centres undefined)	663
CCN1CCN(C(=O)CCC2CCCN(c3cc(NC4CC4)ncn3)C2)CC1 (centres undefined)	555
Cc1ccc(Nc2c(-c3cccc(Br)c3)nc3cccc(C)n23)cc1	826
O=C(C1CCN(S(=O)(=O)N2CCOCC2)CC1)N1CCC(Cc2nc(C3CCOCC3)no2)CC1	681
CCN(C(=O)C1CCN(C(=O)c2cccc(F)c2)CC1)C1CCCCC1	855
COC(=O)c1cccc(C(=O)Nc2ccc(C)cc2Cl)n1	1100
CCN1C(=O)COc2ccc(-c3noc(Cc4ccc(Cl)cc4)n3)cc21	1100
Cc1c(Cl)ccc2c(=O)c3c([nH]c12)CCN(CC(=O)Nc1ccc(Cl)c(F)c1)C3	646
CC1CCN(C(=O)c2cc(S(=O)(=O)N(C)CC(=O)NC3CC3)cn2C)CC1	693
CC(Oc1ccc(=O)n(-c2ccc(F)cc2)n1)C(=O)Nc1ccc(Cl)cc1 (centres undefined)	845
COCCNC(=O)C1CCN(C2=NS(=O)(=O)C(c3ccc(Cl)cc3)=C2C)CC1	725
COC1CCC12CCN(S(=O)(=O)c1ccc(C)c(Cl)c1)CC2 (centres undefined)	1160
Cc1ccc(C)c(NS(=O)(=O)c2cn(C(C)C)c3ncccc23)c1	960

Structure (SMILES)	RP-LC retention time [s]
O=C1NC2(CCN(C(=O)Nc3cccc(F)c3)CC2)Oc2ccccc21	743
COc1ccc(NC(=O)Cn2c(=O)c3cc(C4CC4)nn3c3ncccc32)cc1Cl	807
Cn1cncc1C(=O)N1CC(F)(F)C[C@H]1c1nc(C2CC2)no1	620
Cc1ccc(-c2ncc(NC(=O)c3ccc(Br)o3)cn2)cc1	1030
COc1ccc(CNC(=S)Nc2ccc3nc(N4CCN(C)CC4)cc(C)c3c2)c(OC)c1	600
Cc1oc(C2CCN(S(=O)(=O)c3cccc(C#N)c3)CC2)nc1C(=O)N(C)C	751
COc1ccc2c(c1)c(CN1CC[C@H](CO)[C@H](N(C)C)C1)cn2C(C)C	591
CC(C)NC(=O)Cn1cnc2c(sc3nc(-c4ccccc4)ccc32)c1=O	817
COC(=O)c1cc(OCC(=O)Nc2ccccc2F)c2cc(F)ccc2n1	857
Cc1cccc(C)c1OCC(O)Cn1c(C2CC2)nc2ccccc21 (centres undefined)	710
COCc1nc2c(N)cccn2n1	569
O=C(Cn1cnc2c(sc3nc(-c4ccccc4)ccc32)c1=O)Nc1ccc2c(c1)OCO2	974
CSc1ccc(CNC(=O)CSc2nccc(N3CCN(c4cc(C)ccc4C)CC3)n2)cc1	921
O=c1c2cc(-c3ccc4c(c3)OCO4)nn2ccn1Cc1ccccc1F	985
CC(C)NC(=O)C1CCN(c2cncnc2N(C)C)CC1	580
Cc1nn(C)cc1CN1C[C@@H]2C(=O)N(Cc3ccc4c(c3)OCO4)C(=O)[C@@H]2C1	601
Cc1cc2c(N3CCN(CCO)CC3)ncnc2s1	520
c1ccc(-c2csc(Nc3nc(NCc4ccco4)nc(N4CCCCC4)n3)n2)cc1	1210
CCCn1cc(S(=O)(=O)Nc2cc(C)ccc2F)c2cccnc21	921
Cc1cccc(-n2ccn(CC#N)c(=O)c2=O)c1C	639
CCCn1cc(C(=O)N2CCN(C3CCCCC3)CC2)c2cccnc21	603
Cc1nn2c(CNC(=O)c3cc(F)cc(F)c3)c(C)nc2s1	651
Cc1cc(NS(=O)(=O)c2cc(-c3[nH]ncc3C(=O)N(C)C)oc2C)ccc1F	699

Structure (SMILES)	RP-LC retention time [s]
CC(Oc1ccccc1F)C(=O)Nc1ccc(-c2nc(-c3ccccc3)no2)cc1 (centres undefined)	1260
Cc1ccc(CNC(=O)Cn2ncn3c(C)c(C(=O)NCc4ccc(C)cc4)c(C)c3c2=O)cc1	851
N#Cc1ccc(CN2CCC3(CC2)CN(C2CCC2)CC3CO)cc1 (centres undefined)	606
O=C(NCCc1csc(-c2cccs2)n1)C1CCN(S(=O)(=O)c2ccccc2F)CC1	872
Fc1ccc(-c2csc(Nc3ccc(Br)cn3)n2)cc1	1230
CC(C)c1ccc(NC(=O)CN2C(=O)C3CCCCN3c3ccc(C(=O)N4CCOCC4)cc32)cc1 (centres undefined)	909
Cc1nn(CC(=O)NCCc2c[nH]c3ccccc23)c(=O)c2noc(C)c12	708
Cc1ccccc1Nc1c(-c2cc(Br)ccc2F)nc2ccc(Br)cn12	1120
Cc1ccc(C)c(C(O)Cn2ccn3nc(-c4cccc(Br)c4)cc3c2=O)c1 (centres undefined)	1160
Cn1cc(-c2cc3n(n2)CCCN3C(=O)CCC(=O)NCc2ccccn2)c2ccccc21	629
Cc1ccc(CN2C(=O)CC(N3CCCCC3)C2=O)cc1 (centres undefined)	580
CCOC(=O)c1ccccc1NC(=O)C1CCCN(c2ncnc3c2nc2n3CCCCC2)C1 (centres undefined)	876
CCc1nc(-c2csc(S(=O)(=O)N3CCCC(C(=O)Nc4cc(C)on4)C3)c2)no1 (centres undefined)	896
Cc1ccc(-c2cc(C(=O)N3CCC(NC(=O)Cc4cccs4)CC3)[nH]n2)c(C)c1	776
O=C(Nc1ccc(F)c(Cl)c1)N1CCC(N2CCN(Cc3ccccc3)C2=O)CC1	899
COc1ccc(-c2nc(C)cc(C)c2CNS(=O)(=O)c2ccccc2F)cc1	650
Cc1nn(-c2ccccc2)c2nc(N3CCCC(C(=O)NCCN4CCOCC4)C3)sc12 (centres undefined)	670
CCCS(=O)(=O)c1ccc(NC2CCN(Cc3ccccc3)CC2)nn1	602
CCc1nn2c(CNS(=O)(=O)c3ccccc3)c(-c3ccccc3)nc2s1	901
CCNC(=O)c1nc2cc(C)c(C)cc2n(CC)c1=O	745
COC(=O)c1cc2c(=O)n(-c3ccc(Cl)cc3Cl)ccc2nc1C	928
COc1ccc(S(=O)(=O)N2CCC(n3cnnc3C)CC2)cc1Cl	694
CCCn1cc(CCNC(=O)Nc2cccc(Cl)c2)c2cccnc21	828

Structure (SMILES)	RP-LC retention time [s]
Cc1cccc(S(=O)(=O)Nc2cccc(-c3cn4ccccc4n3)c2)c1	644
CN(C)c1ccc(C(CNC(=O)COc2ccc(Cl)cc2)N(C)C)cc1 (centres undefined)	683
CNC(=O)CN(C)C(=O)c1cc2c(s1)N(CC1CC1)CCCC2	818
O=C(NCc1ccncc1)C1=C2CCCN2c2ccc(F)cc2S1(=O)=O	583
Cc1ccc(N2C(=O)c3ccc(C(=O)N4CCN(c5ccccc5F)CC4)cc3C2=O)cc1	982
Cc1cccc(N(C)C(=O)Cn2c(N3CCc4ccccc4C3)nc(C)cc2=O)c1	850
O=C(c1ccccc1N1C(=O)c2cccc3cccc(c23)C1=O)N1CCOCC1	692
COc1ccc(NC(=O)Cn2c(=O)c(CCC(=O)NCC(C)C)nc3ccccc32)cc1OC	756
Cn1nccc1-c1cccc(-c2noc(-c3ccccc3Br)n2)c1	1180
O=C(Nc1nccs1)c1ccc(Cl)c(S(=O)(=O)N2CCOCC2)c1	729
Cc1ccc2oc(=O)n(Cc3noc(C(=O)NCc4ccc(Br)cc4)n3)c2c1	952
Cc1ccc(-n2cc3c(N4CCCC(C(=O)NCc5ccc(C)c(C)c5)C4)ncnc3n2)cc1 (centres undefined)	772
O=C(c1ccc(Br)o1)N1CCC(Cc2nnc(-c3ccccc3)o2)CC1	881
CCSc1nc2ccc(NS(=O)(=O)c3cc(F)ccc3F)cc2s1	1020
CCOc1ccccc1NC(=O)C1CCN(S(=O)(=O)c2ccc3[nH]c(=O)sc3c2)CC1	870
CCc1cccc(NS(=O)(=O)c2cc(-c3c(CC)noc3NC(C)=O)ccc2OC)c1	807
Cc1ccc(CCNC(=O)c2cc3n(n2)CC(C)(C(=O)NC2CCCCC2)N(C)C3=O)cc1 (centres undefined)	844
CCC1CCCCN1C(=O)c1cnc2nc(C)ccc2c1Nc1ccc(F)cc1C (centres undefined)	703
CC(NC(=O)C1CCN(c2cnn(Cc3ccccc3)c(=O)c2)CC1)c1ccccc1 (centres undefined)	803
CC(=O)N[C@@H]1CN(C(=O)Cc2cccc3ccccc23)C[C@H]1CO	637
